Entries after “also recorded” stand apart in the source; their conditions may differ.
Tests used:
[1] = test system: induced RASA1-deficient mice (Rasa1 fl/fl Ub ert2cre embryos); assay: Developmental angiogenesis in embryos with TM-induced disruption of Rasa1, drug co-administered; conditions: for EC apoptosis (activated caspase 3) / EC export of collagen IV / deposition of collagen IV in vascular BM / blood vascular hemorrhage (and edema): Rasa1 fl/fl Ub ert2cre embryos, TM at E13.5 with drug i.p. to pregnant mice, assessed at E18.5; for Embryonic vascular phenotypes / Percentage embryos with phenotype (affected/total): TM day E13.5 plus drug; for Embryonic vascular phenotypes / Percentage embryos with phenotype (affected/total) / vascular development / vascular phenotypes, drug administered alone: harvest E18.5; for vascular development / vascular phenotypes, drug administered alone: Rasa1 fl/fl and Rasa1 fl/fl Ub ert2cre embryos, drug from E13.5 in the absence of TM
B16 melanoma = assay: Tumor angiogenesis, B16 melanoma model in adult induced RASA1-deficient mice; type: in vivo, mouse; conditions: 13 days
Procedure: TM was administered to mice at 2 months of age (female mice for ID8 experiments and mice of either sex for B16 experiments). After 1 week, mice were injected s.c. in the flank with 1×10^6 ID8 cells or 0.75×10^6 B16F10 cells (provided by Weiping Zou, Michigan Medicine, Ann Arbor Michigan) suspended in 100 μl matrigel (Corning). In B16 experiments, 4PBA was administered to some mice at the same time as tumor and for each day thereafter (0.4 mg/g body weight per injection). ID8 and B16 tumors were harvested 6 weeks or 13 days later respectively and tumor weight and volume was determined as described (Kozak et al. Proc Natl Acad Sci USA. 2010; 107(46):19997-20002; incorporated by reference in its entirety). Tumors were fixed in 4% paraformaldehyde overnight and 5 μm sections were stained with Hoechst and antibodies against CD31, activated caspase 3 and collagen IV as above. Sections were viewed on a BX60 upright fluorescence microscope or a Leica SP5 X confocal microscope. BV density was assessed within a random 800 μm×800 μm region.

human and mouse EC = human and mouse EC in vitro; cited from earlier work
[2] = test system: mouse models that express these mutants; conditions: mouse models expressing point mutant collagen IV variants; cited from earlier work
HUVEC = assay: RASA1 siRNA knockdown in HUVEC, intracellular collagen IV accumulation (immunofluorescence); type: cell-based, human; conditions: RASA1 siRNA-treated HUVEC, 2 mM 4PBA, 24 hours
Procedure: HUVEC from pooled donors (Lonza, CC-2519) were cultured in EBM™-2 Basal Medium (Lonza, CC-3156) supplemented with EGMm-2 SingleQuots™ Supplement Pack (Lonza, CC-4176). Cells were transfected with 50 nM RASA1 siRNA (5′-[…]-3′ (SEQ ID NO: 1), Invitrogen) using Lipofectamine RNAi MAX (Invitrogen) reagent according to the manufacturer's protocol. Stealth RNAi™ siRNA Negative Control Hi GC (Invitrogen) was used as control. Following transfection, HUVEC were recultured in the presence or absence of 2 mM 4PBA for 24 hours.
HUVECs were fixed with 4% paraformaldehyde in PBS for 30 minutes at room temperature washed in PBS, permeabilized with 0.2% Triton X-100, and blocked with 10% donkey serum for 1 hour. Cells were incubated with antibodies against collagen IV (1340-01, SouthemBiotech) and calnexin (PA5-34754, Thermo Fisher) overnight, followed by Alexa Fluor®488 or 594 conjugated secondary antibodies (Jackson ImmunoResearch) for 4 hours. Cells were stained with Hoechst to identify nuclei before mounting and viewing on a Leica SP5 X confocal microscope.

[3] = Rasa1 fl/fl littermates, Ert2Cre driver None
[4] = TM-treated Rasa1 fl/fl Ub ert2cre recipients, 4PBA daily from tumor injection

Row | Compound | EC apoptosis (activated caspase 3) [1] | EC export of collagen IV / deposition of collagen IV in vascular BM [1] | blood vascular hemorrhage (and edema) [1] | Embryonic vascular phenotypes [1, 3] | Percentage embryos with phenotype (affected/total) [1, 3] | Embryonic vascular phenotypes ([1]; Rasa1 fl/fl, Ert2Cre driver Ub) | Percentage embryos with phenotype (affected/total) ([1]; Rasa1 fl/fl, Ert2Cre driver Ub) | B16 growth, 4PBA administered alone (B16 melanoma; Rasa1 fl/fl and Rasa1 fl/fl Ub ert2cre mice not previously injected with TM, 4PBA daily) | export of collagen IV from BEC and BV angiogenesis in B16 tumors (B16 melanoma; [4]) | growth of B16 cells (tumor weight and volume) (B16 melanoma; [4]) | B16 growth (B16 melanoma; TM-treated Rasa1 fl/fl control mice, 4PBA daily) | EC apoptosis (activated caspase 3) ([1]; listed as 4-phenylbutyric acid) | EC export of collagen IV / deposition of collagen IV in vascular BM ([1]; listed as 4-phenylbutyric acid) | vascular development / vascular phenotypes, drug administered alone [1] | blocked export of misfolded point mutant collagen IV variants (human and mouse EC) | intracerebral hemorrhage [2] | intracellular accumulation of collagen IV after RASA1 knockdown (HUVEC)
1 | O=C(O)c1ccnc(C(=O)O)c1 [2,4PDCA, 2,4 pyridinedicarboxylic acid] | absence of BEC apoptosis | normal deposition of collagen IV in vascular BM | absence of hemorrhage and edema | None | 0 (0/6) Percentage | None | 0 (0/3) Percentage |  |  |  |  |  |  |  |  |  | 
2 | O=C(O)CCCc1ccccc1 [4PBA, 4-phenylbutyric acid] | completely rescued; also recorded: absence of BEC apoptosis | completely rescued; also recorded: normal deposition of collagen IV in vascular BM | completely rescued; also recorded: absence of hemorrhage and edema | None | 0 (0/5) Percentage | None | 0 (0/7) Percentage | no influence | normal | restored | no influence | rescued | rescued | no influence; also recorded: absence of vascular phenotypes | rescued | reversed | rescue
3 | Cn1cnc2c(F)c(Nc3ccc(Br)cc3Cl)c(C(=O)NOCCO)cc21 [AZD6244] |  | rescued; also recorded: normal deposition of collagen IV in vascular BM | prevented; also recorded: absence of hemorrhage and edema | None | 0 (0/8) Percentage | None | 0 (0/7) Percentage |  |  |  |  |  |  | did not induce any vascular abnormalities; also recorded: absence of vascular phenotypes |  |  | 
4 | CCOC(=O)c1ccc(O)c(O)c1 [EDHB] | completely rescued; also recorded: absence of BEC apoptosis | completely rescued; also recorded: normal deposition of collagen IV in vascular BM | completely rescued; also recorded: absence of hemorrhage and edema |  |  | None | 0 (0/5) Percentage |  |  |  |  |  |  |  |  |  | 
5 | C=CCN(/C=C1/C(=O)O[C@H](COC)[C@@]2(C)C1=C(O)C(=O)C1=C2[C@H](OC(C)=O)C[C@]2(C)C(=O)CC[C@@H]12)CC=C [PX-866] | unable to rescue | unable to rescue | extensive cutaneous hemorrhage was evident |  |  |  |  |  |  |  |  |  |  |  |  |  | 

Reference: patent US12472189B2, “Treatment and prevention of capillary malformation-arteriovenous malformation” (The Regents of University of Michigan, priority 2020, dated 2025)
